We go through nine molecules from patent publication US11208385B2, “N-substituted imidazole carboxylate compound, preparation method and use” (priority 2017, dated 2021).

In data set [1] the test system is SD rats. As for the experimental part: 30 male SD rats weighing 250˜300 g were randomly divided into 6 groups, 5 rats for one group. […] Each drug was continually infused to rats via caudal vein, and made the righting reflex abolish, and the abolition of righting reflex was maintained for 1 hour. The wake time after drug withdrawal and the time of full recovery were recorded.

The nature of data set [2]: In vitro degradation experiment in rat liver homogenate (HPLC). The class given is in vitro ADME. The settings on record: rat liver homogenate, 37° C., 50 μg/mL. As for the experimental part:
In Vitro Degradation Experiment of Compounds.
Chromatographic condition: mobile phase is methanol: H2O=65:35, and the water phase contains 0.06% ammonium acetate; the flow rate is 1 mL/min; the column temperature is 25° C.
Apparatus: Agilent 1100 Series. Chromatographic column: Aglent Eclipse Plus C18 column, 5 μm 4.6*[…].
The linear range is 1-50 μg/mL.
After fasting for 24 h, male SD rats were treated to collect liver, and the water on the surface of liver was removed using the filter paper, then liver was weighed. […] Then, the homogenate was centrifugated at 10000 g for 20 min at the temperature of 4° C. The supernatant solution was collected, and 14 samples (2 mL) of liver homogenate were taken out and warmed to 37° C. in water bath. Each compound (content 10 mg/mL, 10 μl) was added, respectively, to make a concentration of 50 μg/mL in liver homogenate.
[…] After centrifugation, the supernatant solution was taken out and injected. The concentration of each compound at each time point was detected, that was divided by the initial concentration of each compound, to obtain the degradation ratio of each compound.

The subject of data set [3] is SD rats. As to the method: 150 male SD rats weighing 250˜300 g were randomly divided into 15 groups, 10 rats for one group. […] Drugs were injected to rats via caudal vein, and the injection time was 15 seconds. The abolition of righting reflex for 30 s or above was used as the indicator producing anaesthetic effect.
The source holds these as a separate data set.

[4] abbreviates: after 1 h continual infusion, from recovery of righting reflex to free walk.
The mark [5] stands for this setting: after 1 h continual infusion, recovery time of righting reflex after discontinuance.
Where [6] appears, read: single iv dose of 2ED50, 10 rats per group.
Setting [7] is: single iv dose of 2ED50, from abolition to recovery of righting reflex.
[8] abbreviates: single iv dose of 2ED50, from recovery of righting reflex to free walk.

Read-outs that look alike come from different tables or passages of the source.

For the molecule `CCOC(=O)OCOC(=O)c1cncn1[C@H](C)c1ccccc1` [Example 2], the “Time of complete recovery” value with SD rats [1] (setting [4]) came to 3.1 ± 1.8 min; in the data set on SD rats [3] (setting [8]) it was 2.5 ± 0.4 min. The “Wake time after drug withdrawal” value with SD rats [1] (setting [5]) was determined as 3.1 ± 1.2 min. Also, the “Incidence rate (%) of muscle tremor” value in the data set with SD rats [1] (continual infusion for 1 h) and in the data set with SD rats [3] (setting [6]) was 0% in each case. For the same molecule, the “Residual rate at 5 min (%)” value in data set [2] turned out to be 0%. The “Residual rate at 10 min (%)” value in data set [2] is 0%. Besides, the “Residual rate at 20 min (%)” value in data set [2] came to 0%. Also, the “Time of keeping anaesthesia” value in the data set on SD rats [3] (setting [7]) is 1 ± 0.5 min.

Regarding `CCC(OC(=O)OC(C)C)OC(=O)c1cncn1[C@H](C)c1ccccc1` (stereo partly shown) [Example 28], the “Time of complete recovery” value in the data set on SD rats [1] (setting [4]) was 22.5 ± 4.8 min. Further, in the data set on SD rats [1] (setting [5]), the “Wake time after drug withdrawal” value came to 10.1 ± 2.3 min. For the same molecule, in the data set on SD rats [1] (continual infusion for 1 h), the “Incidence rate (%) of muscle tremor” value is on record as 0%. In data set [2], the “Residual rate at 5 min (%)” value is given as 5.3%, the “Residual rate at 10 min (%)” value came out at 0% and the “Residual rate at 20 min (%)” value worked out at 0%. Moreover, the “Incidence rate (%) of muscle tremor” value in the data set on SD rats [3] (setting [6]) was 0%. In addition, the “Time of keeping anaesthesia” value with SD rats [3] (setting [7]) came to 3.5 ± 1.1 min. Besides, the “Time of complete recovery” value with SD rats [3] (setting [8]) was found to be 2.1 ± 0.5 min.

For `COC(=O)C1(OC(=O)c2cncn2[C@H](C)c2ccccc2)CC1` [CPMM, reference compound], the “Incidence rate (%) of muscle tremor” value in the data set with SD rats [1] (male, SD, rat, in vivo) came out at 90%. In addition, in the data set on SD rats [1] (rat, in vivo), the “Time of complete recovery” value was 25 ± 9 min and the “Wake time after drug withdrawal” value came out at 12 ± 7 min. In data set [2], the “Residual rate at 5 min (%)” value is reported as 0%, the “Residual rate at 10 min (%)” value is 0% and the “Residual rate at 20 min (%)” value amounted to 0%. Besides, the “Incidence rate (%) of muscle tremor” value with SD rats [3] (male, SD, rat, in vivo, iv) is listed as 80%. Also, in the data set on SD rats [3] (rat, in vivo), the Onset of anaesthesia entry is recorded as “immediately anesthetize the rats”. For the same molecule, in the data set on SD rats [3] (rat, in vivo, iv), the “Time of complete recovery” value is 2.3 ± 2.1 min and the “Time of keeping anaesthesia” value is on record as 2.5 ± 1.3 min.

With `CC(C)OC(=O)OCOC(=O)c1cncn1[C@H](C)c1ccccc1` [Example 3], the “Time of complete recovery” value in the data set on SD rats [1] (setting [4]) was found to be 1.9 ± 0.9 min. Besides, the “Wake time after drug withdrawal” value with SD rats [1] (setting [5]) came out at 3.4 ± 1.1 min. Besides, the “Incidence rate (%) of muscle tremor” value in the data set with SD rats [1] (continual infusion for 1 h) worked out at 0%. Moreover, in data set [2], the “Residual rate at 5 min (%)” value amounted to 0%, the “Residual rate at 10 min (%)” value is recorded as 0% and the “Residual rate at 20 min (%)” value came out at 0%. The “Incidence rate (%) of muscle tremor” value in the data set on SD rats [3] (setting [6]) was determined as 0%. Further, in the data set with SD rats [3] (setting [7]), the “Time of keeping anaesthesia” value is recorded as 2.1 ± 0.3 min. In addition, the “Time of complete recovery” value in the data set with SD rats [3] (setting [8]) is listed as 1.3 ± 0.5 min.

`CC[C@@H](C)OC(=O)OCOC(=O)c1cncn1[C@H](C)c1ccccc1` [Example 16]: the “Time of complete recovery” value in the data set on SD rats [1] (setting [4]) stood at 2.1 ± 0.5 min. Besides, the “Wake time after drug withdrawal” value in the data set with SD rats [1] (setting [5]) was 4.5 ± 2.2 min. In the data set on SD rats [1] (continual infusion for 1 h), the “Incidence rate (%) of muscle tremor” value turned out to be 0%. For the same molecule, in data set [2], the “Residual rate at 5 min (%)” value was determined as 3.2%, the “Residual rate at 10 min (%)” value is 0% and the “Residual rate at 20 min (%)” value turned out to be 0%. Further, the “Incidence rate (%) of muscle tremor” value in the data set on SD rats [3] (setting [6]) turned out to be 0%. Moreover, in the data set with SD rats [3] (setting [7]), the “Time of keeping anaesthesia” value was determined as 3.1 ± 0.4 min. Also, the “Time of complete recovery” value in the data set with SD rats [3] (setting [8]) was 2.1 ± 0.5 min.

On to `CC[C@H](C)OC(=O)OCOC(=O)c1cncn1[C@H](C)c1ccccc1` [Example 17], for which, in data set [2], the “Residual rate at 5 min (%)” value was found to be 3.1%, the “Residual rate at 10 min (%)” value is 0% and the “Residual rate at 20 min (%)” value came out at 0%. Also, in the data set on SD rats [3] (setting [6]), the “Incidence rate (%) of muscle tremor” value was determined as 0%. Besides, the “Time of keeping anaesthesia” value in the data set with SD rats [3] (setting [7]) worked out at 2.2 ± 0.3 min. Besides, the “Time of complete recovery” value in the data set with SD rats [3] (setting [8]) is listed as 1.6 ± 0.2 min.

Regarding `CCC(C)OC(=O)OCOC(=O)c1cncn1[C@H](C)c1ccccc1` (stereo partly shown) [Example 11], the “Incidence rate (%) of muscle tremor” value in the data set on SD rats [3] (setting [6]) is 0%. For the same molecule, in the data set with SD rats [3] (setting [7]), the “Time of keeping anaesthesia” value amounted to 2.8 ± 1.1 min. The “Time of complete recovery” value in the data set with SD rats [3] (setting [8]) was found to be 2.1 ± 1.2 min.

With `CCC(C)OC(=O)OCOC(=O)c1cncn1[C@H](C)c1ccccc1.Cl` (stereo partly shown) [Example 10], the “Incidence rate (%) of muscle tremor” value with SD rats [3] (setting [6]) was determined as 0%. The “Time of keeping anaesthesia” value in the data set on SD rats [3] (setting [7]) is 2.5 ± 0.7 min. For the same molecule, the “Time of complete recovery” value with SD rats [3] (setting [8]) was determined as 2.0 ± 0.9 min.

As to `CC(C)OC(=O)OCOC(=O)c1cncn1[C@H](C)c1ccccc1` [Example 12], in the data set on SD rats [3] (setting [6]), the “Incidence rate (%) of muscle tremor” value is listed as 0%. Moreover, the “Time of keeping anaesthesia” value in the data set on SD rats [3] (setting [7]) is given as 2.2 ± 0.5 min. In the data set on SD rats [3] (setting [8]), the “Time of complete recovery” value came to 1.2 ± 0.6 min.
